Data published in US8709385B2, “Poloxamer foamable pharmaceutical compositions with active agents and/or therapeutic cells and uses” (Foamix Ltd., priority 2008, dated 2014).
Like-named read-outs stand apart in the source and are kept apart here.

Key:
[1] = Solubility and gelling of salicylic acid in Poloxamer 188 solution; format: physicochemical; conditions: 0.50 gr. in 12.5 gr. of 20% Poloxamer 188
Text: In both vials, 1 & 2, there are 12.5 gr. of 20% Poloxamer 188/purified water stock solution (2.5 gr. Poloxamer 188+10 gr. purified water).

[2] = USP 29, cited from earlier work
[3] = Solubility of 3% sodium diclofenac in Poloxamer 407 in water; format: physicochemical; conditions: 3% in 5, 7 and 10 percent of Poloxamer in water, heated to 75° C. and cooled
Protocol: All 3 concentrations were heated to 75° C. to dissolution and cooled.

[4] = Microscope observation for crystals of active agent; format: physicochemical; conditions: Poloxamer 407 at 15% concentration in the formulation
Text: Poloxamer 407 functions as co-solubilizer ingredient of sodium diclofenac.

state of Poloxamer 188 solution with doubled salicylic acid concentration [1]	crystals after 24 h [3]	crystals under the microscope [4]	Compound	solubility in water ([2]; 20° C.) [%]	solubility in water [2] [gr. in 460 gr.]
viscous gel with no fluidity			O=C(O)c1ccccc1O [Salicylic acid]	~0.2	1
	crystals were visually observed	crystals were not observed	O=C(O)Cc1ccccc1Nc1c(Cl)cccc1Cl [sodium diclofenac]		
